The target in assay [1] is T1, recombinant human purine nucleoside phosphorylase (rhPNPase) (Homo sapiens, UniProt P00491).
T1 construct: gene PNP
T1 sequence (P00491 1-289): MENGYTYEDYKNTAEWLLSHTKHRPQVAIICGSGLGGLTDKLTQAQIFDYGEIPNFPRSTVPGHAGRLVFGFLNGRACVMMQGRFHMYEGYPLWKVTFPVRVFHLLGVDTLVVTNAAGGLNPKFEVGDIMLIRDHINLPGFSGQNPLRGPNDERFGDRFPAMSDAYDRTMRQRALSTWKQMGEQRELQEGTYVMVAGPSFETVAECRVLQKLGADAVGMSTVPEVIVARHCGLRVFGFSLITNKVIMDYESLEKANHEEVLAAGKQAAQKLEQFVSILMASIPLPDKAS
Nature of the assay: biochemical.

In assay [2] the target is T1, recombinant human purine nucleoside phosphorylase (rhPNPase). Nature of the assay: HPLC-UV enzyme kinetics, guanosine as substrate (Ki […] with inosine), competitive inhibition fit. The class given is biochemical.
Assay [3] shares this target. In words: HPLC-UV enzyme kinetics, competitive inhibition of inosine metabolism; also Michaelis-Menten turnover to 8-aminohypoxanthine. Type of assay: biochemical.
Assay [4] shares this target. In words: Michaelis-Menten kinetics by HPLC-UV; also inhibits metabolism of 8-aminoinosine. The class given is biochemical.

Take `Nc1nc2[nH]c(N)nc2c(=O)[nH]1` [8AG, 8-aminoguanine]: the Ki in assay [1] was determined as 2.8 µM. `Nc1nc2nc[nH]c(=O)c2[nH]1` [8AHX, 8-aminohypoxanthine]: the Ki in assay [2] is 20 µM.

As for `Nc1nc2c(O)ncnc2n1[C@@H]1O[C@H](CO)[C@@H](O)[C@H]1O` [8AI, 8-aminoinosine], in assay [3], the Ki came to 35 µM. `O=c1[nH]cnc2c1ncn2[C@@H]1O[C@H](CO)[C@@H](O)[C@H]1O` [inosine]: the “Michaelis-Menten kinetics by HPLC-UV; also inhibits metabolism of 8-aminoinosine” value in assay [4] was “inosine competitively inhibits the metabolism of 8-aminoinosine to 8-aminohypoxanthine”.
